Laboratory results: patent publication US20220362174A1, “Use of R-enantiomer Beta2-agonists for prevent and treatment of pulmonary inflammation and inflammatory remodeling for reduced adverse effects” (priority 2019, published 2022)
Entries after “also recorded” stand apart in the source; their conditions may differ.

Legend:
OVA induced asthma mice [1] = assay: Combination therapy of ipratropium with RS-, R- and S-salbutamol: airway resistance in response to methacholine; type: in vivo
Method: OVA sensitized/challenged asthma model Mice were sensitized and challenged with ovalbumin (OVA) or normal saline. […] On days 21, 22 and 23, the mice were challenged with 1% OVA in saline (0.01 g/mL) for 20 min via. a nebulizer (PART Turbo boy). […] In vivo airway responsiveness to methacholine (Mch) was assessed on day 28 in conscious, freely moving, spontaneously breathing mice by a whole-body plethysmography (Buxco Electronics Inc.). […] Before Mch challenge, a 20 μL drug aerosol or saline was given to the mice because of the short-acting bronchodilating effect of terbutaline. The degree of bronchoconstriction was expressed as enhanced pause (Penh), a calculated dimensionless value that correlates with measurement of airway resistance, impedance, and intrapleural pressure. […] Methods used were similar as mentioned above. Nebulized aerosol of saline, Methacholine 2 mg/ml (low dose) or 10 mg/ml (high dose) were given via inhalation to OVA induced asthma mice.

OVA induced asthma mice [2] = assay: Combination therapy of ipratropium with R- and S-salbutamol: lung histopathology (Masson, PAS); type: in vivo
Method: Left lung tissue was obtained for histopathology and fixed in 10% formalin for 24 h, followed by paraffin-embedded and then were sectioned at 4 μm for routine staining with hematoxylin and eosin (H&E, Solarbio, Beijing, China), or with periodic acid-Schiff (PAS, Solarbio, Beijing, China), or submitted to Masson's trichrome staining (Baso, Zhuhai, China). Images of the stained lung sections were obtained by an Axisplus image-capturing system (Zeiss, Germany) and then a minimum of 3 bronchi (luminal diameter, 150-500 μm) were analyzed per mice for various parameters using an image analyzing computer system (IPP) by pathologists blinded to grouping. Histological score, airway smooth muscle thickness, PAS score (goblet cells hyperplasia), and collagen deposition were evaluated by a semi-quantitative scoring method.
Methods used were similar as mentioned above. Nebulized aerosol of saline, Methacholine 2 mg/ml (low dose) or 10 mg/ml (high dose) were given via inhalation to OVA induced asthma mice.

[3] = system: LPS-induced RAW264.7 cells; assay: Intracellular ROS (DCFH-DA); type: cell-based
Method: (§1) Macrophages were treated without or with (R)/(S)-salbutamol for 1 h prior to LPS stimulation and subsequently incubated for 12 h. […] The fluorescence of the oxidized product (2′,7′-dichlorofluorescein, DCF) was assessed using an LSM710 Laser Scanning Confocal Microscope (Carl Zeiss, Jena, Germany). The concentration of NO in the culture supernatant was measured by assaying the concentrations of nitrite (a stable NO breakdown product) using the Griess assay (Beyotime, Shanghai, China), according to the manufacturer's instructions. The intracellular NO level was detected using the NO-sensitive fluorescence probe DAF-FM DA (Sigma, St. Louis, Mo., USA) (24). Cells were labeled with DAF-FM DA (10 μM) at 37° C. for 30 min and were gently washed three times with PBS. Fluorescence was detected using a LSM710 Laser Scanning Confocal Microscope (Scale bars, 100 μm) (Carl Zeiss, Jena, Germany).
LPS can promote cell apoptosis through mitochondrial dysfunction, and mitochondria are the major source of ROS.

[4] = system: LPS-induced RAW264.7 cells; assay: mRNA expression of TNF-α, IL-1β and MCP-1 by quantitative real-time PCR; type: cell-based; details: pretreated prior to LPS
Method: as §1
To examine the mRNA expression of TNF-α, IL-1β and MCP-1, quantitative real-time PCR was performed. Consistent with the cytokine expression study, the mRNA expression of TNF-α was increased by 2.26-fold in the LPS-induced group compared to the control group (FIG. 8D). The mRNA expression of IL-1β and MCP-1 increased by 12.74-fold (FIG. 8E) and 3.1-fold, respectively, in the LPS-induced group compared to the control group (FIG. 8F).

[5] = system: LPS-induced RAW264.7 cells; assay: Seahorse analysis of OCR and ECAR; type: cell-based; details: LPS-treated cells
Method: as §1
Macrophage activation elicited different metabolic profiles. LPS-induced macrophages adopted glycolytic metabolic profiles. This invention disclosed a β2 adrenergic receptor mediated Warburg metabolism (aerobic glycolysis) of in LPS treated macrophages. The OCR and ECAR were measured using an extracellular flux analyzer. […] ECAR is a measurement extracellular acidification rate, an indication of cellular glycolytic rate.

[6] = system: macrophages from the peritoneal fluid; assay: LPS-induced proliferation and polarization of macrophages from the peritoneal fluid (sepsis); type: in vivo
Source text: Macrophage activation and proliferation was considered to be the key step of initiation and development of sepsis. In one embodiment, LPS (PAMPs from bacteria) induced a proliferation and polarization of macrophages from the peritoneal fluid. […] These inhibitory effects can be blocked by using specific β2-recepter blocker.

BALB/c mice [7] = assay: Survival study after LPS challenge (sepsis); type: in vivo; details: for Percent of death after LPS challenges, 24 h: Saline + LPS 36.4; for Percent of death after LPS challenges, 36 h: Saline + LPS 72.7; for Percent of death after LPS challenges, 48 h / Percent of death after LPS challenges, 72 h / Percent of death after LPS challenges, 144 h: Saline + LPS 90.9; for Percent of death after LPS challenges, 12 h: Saline + LPS 0; for rate of mortality/death after LPS challenge (in words): in comparison of LPS challenged group without pretreatment (mortality 90.9%)
Method: Treatment were given intraperitoneally for 3 consecutive days. One hour after the 3rd day treatments, LPS (15 mg/kg) was administered intraperitoneally. The animals were monitored. Survival rate was then recorded every 12 h for 144 hours.

BALB/c mice [8] = assay: Lung function measurements 6 hours after LPS (Buxco); type: in vivo
Method: Methods: Survival study: […] Treatment were given intraperitoneally for 3 consecutive days. […] The animals were monitored. Survival rate was then recorded every 12 h for 144 hours. The lung functions were measured with using Buxco system (Buxco Electronics, USA). After a brief acclimation to the chamber, the mice received an initial baseline challenge of saline. Measures were made at 6 hours after administration of LPS, including tidal volume and Penh which is an indication of airway resistance.

SMILES: CC(C)(C)NC[C@H](O)c1ccc(O)c(CO)c1 [R-salbutamol, (R)-Salbutamol]
- increase in airway resistant in response to methacholine (in words) (OVA induced asthma mice [1]): significantly diminished
- increase in airway resistance after treatment (OVA induced asthma mice [1]; response to methacholine, OVA + Saline 445%): 180%
- PAS staining: goblet cell hyperplasia, mucus over secretion, airway edema (OVA induced asthma mice [2]; vs OVA model): significant therapeutic benefit
- Masson staining: collagen deposition, wall thickness of bronchiole and vascular vessels (OVA induced asthma mice [2]; vs ova (model) group): significant therapeutic effects
- production/levels of ROS (in words) ([3]; LPS-induced cells): significantly decreased
- decrease of the level of DCF (ROS) ([3]; pretreated before LPS, LPS increased 7.30-fold): 3.38 fold
- mRNA level of TNF-α ([4]; LPS alone 2.26-fold of control): significantly decreased
- mRNA level of MCP-1 ([4]; LPS alone 3.1-fold of control): significantly decreased
- mRNA level of IL-1β ([4]; LPS alone 12.74-fold of control): significantly decreased
- ECAR, aerobic glycolysis [5]: inhibited the aerobic glycolysis; also recorded: significantly reduced aerobic glycolysis
- number of macrophages from the peritoneal fluid ([6]; LPS sepsis): significantly reduced toward normal level
- polarized M1 macrophages or M2 macrophages ([6]; in comparison of sepsis condition): significant reduction
- Percent of death after LPS challenges, 24 h (BALB/c mice [7]; 0.1 mg/kg + LPS): 20%
- Percent of death after LPS challenges, 36 h (BALB/c mice [7]; 0.1 mg/kg + LPS): 20%
- Percent of death after LPS challenges, 48 h (BALB/c mice [7]; 0.1 mg/kg + LPS): 40%
- Percent of death after LPS challenges, 72 h (BALB/c mice [7]; 0.1 mg/kg + LPS): 40%
- Percent of death after LPS challenges, 144 h (BALB/c mice [7]; 0.1 mg/kg + LPS): 40%
- Percent of death after LPS challenges, 12 h (BALB/c mice [7]; 0.1 mg/kg i.p. 3 days + LPS 15 mg/kg): 0%
- Percent of death after LPS challenges, 12 h (BALB/c mice [7]; 0.5 mg/kg + LPS): 0%
- Percent of death after LPS challenges, 24 h (BALB/c mice [7]; 0.5 mg/kg + LPS): 0%
- Percent of death after LPS challenges, 36 h (BALB/c mice [7]; 0.5 mg/kg + LPS): 0%
- Percent of death after LPS challenges, 48 h (BALB/c mice [7]; 0.5 mg/kg + LPS): 0%
- Percent of death after LPS challenges, 72 h (BALB/c mice [7]; 0.5 mg/kg + LPS): 0%
- Percent of death after LPS challenges, 144 h (BALB/c mice [7]; 0.5 mg/kg + LPS): 0%
- Percent of death, 12 h (BALB/c mice [7]; 0.5 mg/kg + saline (no LPS)): 0%
- Percent of death, 24 h (BALB/c mice [7]; 0.5 mg/kg + saline (no LPS)): 0%
- Percent of death, 36 h (BALB/c mice [7]; 0.5 mg/kg + saline (no LPS)): 0%
- Percent of death, 48 h (BALB/c mice [7]; 0.5 mg/kg + saline (no LPS)): 0%
- Percent of death, 72 h (BALB/c mice [7]; 0.5 mg/kg + saline (no LPS)): 0%
- Percent of death, 144 h (BALB/c mice [7]; 0.5 mg/kg + saline (no LPS)): 0%
- rate of mortality/death after LPS challenge (in words) (BALB/c mice [7]): survived
- rate of mortality/death after LPS challenge (in words) (BALB/c mice [7]; listed as (R)-salbutamol): greatly reduced or even diminished
- deterioration of respiratory function induced by LPS (in words) (BALB/c mice [8]): restored
- Tidal volume (BALB/c mice [8]; 0.1 mg/kg, LPS + saline 0.13 ± 0.03, Saline 0.22 ± 0.02): 0.17 ± 0.02 mL
- Penh (BALB/c mice [8]; 0.1 mg/kg, LPS + saline 1.31 ± 0.40, Saline 0.54 ± 0.09): 0.68 ± 0.09
- Tidal volume (BALB/c mice [8]; 0.5 mg/kg, LPS + saline 0.13 ± 0.03): 0.21 ± 0.02 mL
- Penh (BALB/c mice [8]; 0.5 mg/kg, LPS + saline 1.31 ± 0.40): 0.53 ± 0.07
